From ChEMBL document CHEMBL3885861, “Open TG-GATES”

Organism: Rattus norvegicus
Experiment: Open TG-GATES - Regimen: Daily Repeat
Type: toxicity, organism-based, Sprague-Dawley
Design: regimen Daily Repeat, gender Male, age 6 weeks
Conditions: in vivo, po, 300 mg/kg, route gavage, dose level High; for APTT / Bas / Eos / Fbg / Hb / Ht / Lym / MCH / MCHC / MCV / Mono / Neu / PT / Plat / RBC / Ret / WBC: tissue Blood; for KIDNEY_L / KIDNEY_R / KIDNEY_TOTAL: tissue Kidney; for LIVER: tissue Liver; for A/G / ALP / ALT / AST / BUN / CRE / Ca / Cl / DBIL / GLC / IP / K / LDH / Na / PL / RALB / TBIL / TC / TG / TP / gamma-GTP: tissue Plasma

## Brc1ccccc1 [BROMOBENZENE]
72 h, time 3 day
  TERMINAL_BW: 204.3 g
  APTT: 21.2 s
  Bas: 0.6%
  Eos: 1%
  Fbg: 259.2 mg/dL
  Hb: 13.1 g/dL
  Ht: 38.3%
  Lym: 78.4%
  MCH: 21.2 pg
  MCHC: 34.2%
  MCV: 62.1 fL
  Mono: 3%
  Neu: 16.4%
  PT: 12 s
  Plat: 109.8 x10_4/uL
  RBC: 616.6 x10_4/ul
  Ret: 4.2%
  WBC: 105.2 x10_2/uL
  KIDNEY_L: 0.9 g
  KIDNEY_R: 0.9 g
  KIDNEY_TOTAL: 1.8 g
  LIVER: 12 g
  A/G: 0.9
  ALP: 1821.4 IU/L
  ALT: 70.8 IU/L
  AST: 110.6 IU/L
  BUN: 12.4 mg/dL
  CRE: 0.2 mg/dL
  Ca: 10.5 mg/dL
  Cl: 104.8 meq/L
  DBIL: 0.02 mg/dL
  GLC: 177.6 mg/dL
  IP: 7 mg/dL
  K: 4.1 meq/L
  LDH: 124.2 IU/L
  Na: 141.8 meq/L
  PL: 184.6 mg/dL
  RALB: 2.6 g/dL
  TBIL: 0.08 mg/dL
  TC: 96.4 mg/dL
  TG: 88.4 mg/dL
  TP: 5.4 g/dL
  gamma-GTP: 1.4 IU/L
[…], time 7 day
  TERMINAL_BW: 239.4 g
  APTT: 17.1 s
  Bas: 0%
  Eos: 0.6%
  Fbg: 278.2 mg/dL
  Hb: 12.6 g/dL
  Ht: 36.8%
  Lym: 74.4%
  MCH: 21.3 pg
  MCHC: 34.3%
  MCV: 62.3 fL
  Mono: 3.2%
  Neu: 21.4%
  PT: 12.4 s
  Plat: 117.3 x10_4/uL
  RBC: 591.2 x10_4/ul
  Ret: 6.9%
  WBC: 101.2 x10_2/uL
  KIDNEY_L: 1 g
  KIDNEY_R: 1 g
  KIDNEY_TOTAL: 2 g
  LIVER: 13.4 g
  A/G: 0.9
  ALP: 1637 IU/L
  ALT: 44 IU/L
  AST: 65.2 IU/L
  BUN: 12.8 mg/dL
  CRE: 0.2 mg/dL
  Ca: 11.3 mg/dL
  Cl: 105.6 meq/L
  DBIL: 0.012 mg/dL
  GLC: 187.4 mg/dL
  IP: 7 mg/dL
  K: 4 meq/L
  LDH: 99.6 IU/L
  Na: 144.2 meq/L
  PL: 171.2 mg/dL
  RALB: 2.8 g/dL
  TBIL: 0.052 mg/dL
  TC: 88 mg/dL
  TG: 94.8 mg/dL
  TP: 6 g/dL
  gamma-GTP: 1 IU/L
[…], time 14 day
  TERMINAL_BW: 287 g
  APTT: 18.6 s
  Bas: 0%
  Eos: 0.6%
  Fbg: 288.4 mg/dL
  Hb: 13.4 g/dL
  Ht: 39.2%
  Lym: 78.4%
  MCH: 20.3 pg
  MCHC: 34.1%
  MCV: 59.5 fL
  Mono: 2.6%
  Neu: 17.8%
  PT: 12.2 s
  Plat: 118 x10_4/uL
  RBC: 658 x10_4/ul
  Ret: 5.1%
  WBC: 106.3 x10_2/uL
  KIDNEY_L: 1.1 g
  KIDNEY_R: 1.1 g
  KIDNEY_TOTAL: 2.2 g
  LIVER: 15.2 g
  A/G: 0.8
  ALP: 1442.4 IU/L
  ALT: 45.8 IU/L
  AST: 69.4 IU/L
  BUN: 15 mg/dL
  CRE: 0.2 mg/dL
  Ca: 10.8 mg/dL
  Cl: 106.4 meq/L
  DBIL: 0.01 mg/dL
  GLC: 185.2 mg/dL
  IP: 6.4 mg/dL
  K: 4 meq/L
  LDH: 63.2 IU/L
  Na: 144 meq/L
  PL: 180.4 mg/dL
  RALB: 2.8 g/dL
  TBIL: 0.04 mg/dL
  TC: 89.4 mg/dL
  TG: 123.2 mg/dL
  TP: 6.1 g/dL
  gamma-GTP: 1.2 IU/L
[…], time 28 day
  TERMINAL_BW: 359.9 g
  APTT: 18.2 s
  Bas: 0%
  Eos: 1%
  Fbg: 295.8 mg/dL
  Hb: 14.6 g/dL
  Ht: 42.5%
  Lym: 73.2%
  MCH: 19.1 pg
  MCHC: 34.4%
  MCV: 55.5 fL
  Mono: 2.6%
  Neu: 23%
  PT: 12.7 s
  Plat: 96.5 x10_4/uL
  RBC: 765 x10_4/ul
  Ret: 2.5%
  WBC: 120.7 x10_2/uL
  KIDNEY_L: 1.5 g
  KIDNEY_R: 1.5 g
  KIDNEY_TOTAL: 2.9 g
  LIVER: 17.7 g
  A/G: 0.8
  ALP: 1183.4 IU/L
  ALT: 42.8 IU/L
  AST: 65.4 IU/L
  BUN: 15.2 mg/dL
  CRE: 0.2 mg/dL
  Ca: 10.4 mg/dL
  Cl: 106.8 meq/L
  DBIL: 0.022 mg/dL
  GLC: 185.2 mg/dL
  IP: 5.6 mg/dL
  K: 4 meq/L
  LDH: 73 IU/L
  Na: 143.4 meq/L
  PL: 165.4 mg/dL
  RALB: 2.7 g/dL
  TBIL: 0.048 mg/dL
  TC: 79.8 mg/dL
  TG: 154.2 mg/dL
  TP: 6.2 g/dL
  gamma-GTP: 1.2 IU/L
